Results from US5830433A, “Radiolabeled growth hormone secretagogue” (Merck & Co., Inc., priority 1996, dated 1998).

Assay: storage stability of the radioligand in solution
Format: physicochemical
Conditions: trace hcl; stored at -20° C. as a solution in 15% methanol/water containing a trace of hydrochloric acid; read-out: stability, loss of radiochemical purity

With CC(C)(N)C(=O)N[C@H](COCc1ccccc1)C(=O)N1CCC2(CC1)CN([35S](C)(=O)=O)c1ccccc12 [[^35 S]-radioligand, [^35 S]N-[1(R)-[(1,2-Dihydro-1-methanesulfonylspiro[3H-indole-3,4'-piperdin]-1'-yl)carbonyl]-2-(phenylmethyloxy)ethyl]-2-amino-2-methylpropanamide] as the compound, how does the degraded at 730 h read?
The degraded at 730 h was under 0.5%.
